Test results published in paper PMC2994023 (Interdisciplinary Toxicology, 2010).

Legend:
rat hepatic microsomes = experiment: Metabolism of N-(2-methoxyphenyl)hydroxylamine by hepatic microsomes of control (uninduced) rats, HPLC of metabolites; assay type: in vitro ADME; conditions: 1.0 mM substrate
Protocol: (§1) The study was conducted in accordance with the Regulations for the Care and Use of Laboratory Animals (311/1997, Ministry of Agriculture, Czech Republic), which complies with Declaration of Helsinki. Microsomes from livers of ten untreated rats and three rabbits were prepared by the procedure described previously (Stiborová et al., [1988]). Microsomes from the livers of ten male Wistar rats pretreated with β-NF (Stiborová et al., [1988]) were isolated as described (Stiborová et al., [1988]; [1995]), those pretreated with phenobarbital (PB) as reported by Hodek et al. ([1988]), and those pretreated with ethanol were isolated using a procedure described by Yang et al. ([1985]). Protein concentrations in the microsomal fractions were assessed using the bicinchoninic acid protein assay with bovine serum albumin as a standard (Wiechelman et al., [1988]). The concentration of CYP was estimated according to Omura and Sato ([1964]), by measuring the absorption of the complex of reduced CYP with carbon monoxide. […] The activity of NADPH:CYP reductase in rat hepatic microsomes was measured according to Sottocasa et al. ([1967]) using cytochrome c as substrate (i.e., as NADPH:cytochrome c reductase).

[1] = test system: rat hepatic microsomes enriched with CYP2E1; experiment: Metabolism of N-(2-methoxyphenyl)hydroxylamine by hepatic microsomes of rats pre-treated with ethanol; assay type: in vitro ADME
Protocol: as §1

[2] = Incubation of N-(2-methoxyphenyl)hydroxylamine without hepatic microsomal enzymes or without NADPH (spontaneous conversion); assay type: physicochemical; conditions: pH 7.4, without hepatic microsomal enzymes or without NADPH
Protocol: At pH 7.4, used for microsomal incubations, their spontaneous formation was negligible.

CYP = CYP concentration in hepatic microsomes of induced rats (CO complex of reduced CYP); conditions: hepatic microsomes of rats induced with the agent
Protocol: as §1

NADPH:CYP reductase = NADPH:CYP reductase activity in hepatic microsomes of induced rats (cytochrome c as substrate); conditions: hepatic microsomes of rats induced with the agent
Protocol: as §1

Sacchromyces cerevisiae = conditions: ref Brennan and Schiestl ([1997]); cited from earlier work

Compound	CYP content of hepatic microsomes (CYP) [nmol CYP/mg protein]	NADPH:CYP reductase activity in hepatic microsomes (NADPH:CYP reductase) [µmol/min/mg protein]	other results
COc1ccccc1NO [N-(2-methoxyphenyl)hydroxylamine]	–	–	formation of metabolite M1 (rat hepatic microsomes): negligible; change of levels of o-anisidine versus control microsomes [1]: decreased; spontaneous formation of metabolite M1 and o-aminophenol [2]: negligible
CCC1(c2ccccc2)C(=O)NC(=O)NC1=O [PB, phenobarbital]	2.7	0.325	–
CCO [ethanol]	1.8	0.201	–
Nc1ccccc1O [o-aminophenol]	–	–	result in the deletion recombination assay (Sacchromyces cerevisiae): positive
O=c1cc(-c2ccccc2)oc2ccc3ccccc3c12 [β-NF, β-naphthoflavone]	1.3	0.199	–
